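Exposure lasted 48 hours, with cells grown in 96-well plates and compounds tested at five concentrations. GI50 = concentration required for 50% inhibition of growth. TGI: concentration producing complete growth inhibition.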
How the values were obtained:
Assay in all cases: NCI tumour cell line growth inhibition, 48 h
UO-31 renal = test system: UO-31 renal
HCT-116 colon = test system: HCT-116 colon
SK-MEL-5 melanoma = test system: SK-MEL-5 melanoma
UACC-257 melanoma = test system: UACC-257 melanoma
HL-60(TB) leukemia = test system: HL-60(TB) leukemia
HOP-92 NSCLC = test system: HOP-92 NSCLC
ACHN renal = test system: ACHN renal
NCI-H23 lung = test system: NCI-H23 lung
RPMI-8226 leukemia = test system: RPMI-8226 leukemia
NCI-H522 lung = test system: NCI-H522 lung

| Structure (SMILES) | TGI (UO-31 renal) [µM] | TGI (HCT-116 colon) [µM] | TGI (SK-MEL-5 melanoma) [µM] | TGI (UACC-257 melanoma) [µM] | TGI (HL-60(TB) leukemia) [µM] | TGI (HOP-92 NSCLC) [µM] | TGI (ACHN renal) [µM] | TGI (NCI-H23 lung) [µM] | TGI (RPMI-8226 leukemia) [µM] | TGI (NCI-H522 lung) [µM] | GI50 (UO-31 renal) [µM] | GI50 (HCT-116 colon) [µM] | GI50 (SK-MEL-5 melanoma) [µM] | GI50 (UACC-257 melanoma) [µM] | GI50 (HL-60(TB) leukemia) [µM] | GI50 (HOP-92 NSCLC) [µM] | GI50 (ACHN renal) [µM] | GI50 (NCI-H23 lung) [µM] | GI50 (RPMI-8226 leukemia) [µM] | GI50 (NCI-H522 lung) [µM] |
| --- | --- | --- | --- | --- | --- | --- | --- | --- | --- | --- | --- | --- | --- | --- | --- | --- | --- | --- | --- | --- |
| O=C(NNc1ccc([N+](=O)[O-])cc1)C1OC(CO)C(O)C1O (configuration not stated) | > 100 | > 100 | > 100 | > 100 | > 100 | > 100 | > 100 | > 100 | > 100 | – | – | – | – | – | – | – | – | – | – | – |
| C[P+](C)(CC(F)(F)F)c1ccccc1 | > 100 | > 100 | > 100 | > 100 | > 100 | – | > 100 | > 100 | > 100 | > 100 | – | – | – | – | – | – | – | – | – | – |
| NC(=O)Cn1c(=O)[nH]c(=O)c2[nH]cnc21 | > 100 | > 100 | > 100 | > 100 | > 100 | – | > 100 | > 100 | – | > 100 | – | – | – | – | – | – | – | – | – | – |
| COc1ccc(-c2nc(N)nc(-c3cc(C)ccc3O)c2Cl)cc1 | > 100 | > 100 | – | > 100 | > 100 | > 100 | > 100 | > 100 | > 100 | > 100 | – | – | – | – | – | – | – | – | – | – |
| O=C1CCCC2COc3ccc(O)c1c32 (configuration not stated) | > 100 | – | > 100 | > 100 | > 100 | > 100 | > 100 | > 100 | > 100 | > 100 | – | – | – | – | – | – | – | – | – | – |
| COc1ccc(/C=C/CO)cc1OC | > 100 | – | > 100 | > 100 | – | > 100 | > 100 | > 100 | > 100 | – | – | – | – | – | – | – | – | – | – | – |
| S=C1OC2C3C4CC5C3C(O1)C1C5C4C21 (configuration not stated) | > 100 | > 100 | > 100 | > 100 | > 100 | > 100 | > 100 | – | > 100 | > 100 | – | – | – | – | – | – | – | – | – | – |
| NC(=O)c1ccc(-c2c3ccccc3cc3c2ccc2ccccc23)cc1 | 39.5 | 10.8 | 14 | > 100 | > 100 | 25.8 | 62 | 84.4 | 40.7 | – | 7.1 | 2.36 | 3.1 | 12.1 | 2.14 | 6.39 | 6.62 | 10.7 | 5.6 | – |
| C/C(=N\n1c(N)c(C#N)c(-c2ccc(Cl)cc2)c(C#N)c1=O)c1cccnc1 | > 100 | > 100 | > 100 | > 100 | – | 34.8 | > 100 | > 100 | > 100 | – | > 100 | > 100 | > 100 | > 100 | – | – | > 100 | > 100 | > 100 | – |
| Cc1cc(Br)cc(C)c1NC(=O)C(=O)C(C(=O)c1ccc(Cl)c(Cl)c1)C1OC(=O)c2ccccc21 (configuration not stated) | > 100 | > 100 | – | > 100 | > 100 | – | > 100 | > 100 | > 100 | > 100 | – | – | – | – | – | – | – | – | – | – |
| O=C1C=Cc2noc3cccc1c23 | 15.3 | 4.47 | 24.2 | 26.4 | 3.67 | 5.22 | 7.85 | 26 | – | 3.04 | – | – | – | – | – | – | – | – | – | – |
| ClCc1ccc(Cn2cnc3ncnc(Cl)c32)cc1 | 66.7 | – | 12.1 | 3.48 | – | 2.52 | – | 30.6 | 2.67 | > 100 | 4.82 | – | 2.82 | 1.57 | – | 1.17 | – | 16 | 1.28 | 4.3 |
| CC(C)S(=O)(=O)n1c(N)nc2ccc(/C(=N/O)c3ccccc3)cc21 | 47 | 40.2 | – | > 100 | 44.3 | 41.1 | 57.8 | 60.8 | 31.8 | 35.2 | – | – | – | – | – | – | – | – | – | – |
| CN(C)/C(=N/C(=O)Nc1ccccc1)SCc1ccccc1 | > 100 | – | > 100 | > 100 | > 100 | – | > 100 | > 100 | > 100 | > 100 | – | – | – | – | – | – | – | – | – | – |
| Cc1cc(C(=O)NCCN(C)C)c2nc3ccccc3nc2c1 | > 59.6 | 16.3 | > 41.6 | 17.2 | > 100 | – | > 51 | 23.6 | 41.2 | > 100 | – | – | – | – | – | – | – | – | – | – |
| CC(=O)Nc1[nH]c(=O)[nH]c(=O)c1N(C(C)=O)C(C)=O | > 100 | > 100 | > 100 | > 100 | > 100 | > 100 | > 100 | – | > 100 | – | – | – | – | – | – | – | – | – | – | – |
| COc1cc([N+](=O)[O-])c2ncccc2c1O | 10.4 | 82.6 | 2.9 | 7.65 | > 100 | > 100 | > 100 | 4.8 | > 100 | – | 2.05 | 4.26 | 1.47 | 2.56 | 43.3 | 47.1 | 6.08 | 1.37 | 27.7 | – |
| COc1ccc2c3c([nH]c2c1)[C@H]1C[C@H]2[C@H](C[C@@H](O)[C@H](OC)[C@H]2C(=O)O)CN1CC3 | > 100 | > 100 | > 100 | > 100 | – | > 100 | > 100 | > 100 | > 100 | > 100 | – | – | – | – | – | – | – | – | – | – |
| CC12CC(=O)NN=C1c1ccccc1C2 (configuration not stated) | > 100 | > 100 | > 100 | > 100 | > 100 | – | > 100 | > 100 | > 100 | > 100 | – | – | – | – | – | – | – | – | – | – |
| C=C1C(=O)O[C@H]2[C@H](OC(C)=O)[C@@H](C)CCC/C(C)=C/CC[C@]3(CO3)[C@H](O)C[C@@H]12 | 19.9 | – | 27.4 | 26.1 | 5.63 | 6.75 | 4.17 | 18.3 | 5.49 | 20.2 | 6.29 | – | 13.4 | 12.4 | 2.31 | 2.11 | 2.3 | 4.87 | 1.84 | 6.22 |

Source: PubChem BioAssay (NCI)
